Results taken from the NIST ThermoML archive (doi:10.1016/j.jct.2014.01.022).
Numbers after ± are expanded uncertainties.

Key:
[1] = refractive index (Na D-line) (dimensionless); conditions: 298.15 K; 101.33 kPa; Liquid; Standard Abbe refractometry
[2] = 298.15 K; 101.33 kPa; Liquid; Vibrating tube method

SMILES	refractive index [1]	mass density [2] [kg/m3]
CCCn1cc[n+](C)c1.O=S(=O)([N-]S(=O)(=O)C(F)(F)F)C(F)(F)F	1.42526 ± 0.00033	1474.44 ± 0.33
c1ccccc1 [benzene]	1.49774 ± 0.00037	873.57 ± 0.24
CCCCCCCC [octane]	1.39519 ± 0.00037	698.6 ± 0.25
CCCCCCCCC [nonane]	1.40326 ± 0.00031	713.9 ± 0.17
Cc1ccccc1 [toluene]	1.49399 ± 0.00031	862.17 ± 0.13
CCc1ccccc1 [ethylbenzene]	1.49304 ± 0.00037	862.51 ± 0.24
CCCC[n+]1ccn(C)c1.O=S(=O)([N-]S(=O)(=O)C(F)(F)F)C(F)(F)F	1.42706 ± 0.00031	1436.35 ± 0.22
